Source: the OligoGym collection
Bases are written 5' to 3'; sugars and linkages follow in the same order, as letters with counts (s phosphorothioate, o phosphodiester; PS: all linkages phosphorothioate). C may stand for cytosine or 5-methylcytosine; the collection does not tell. l = locked nucleic acid (LNA); d = 2'-deoxy (DNA)

Target: HIF1A
Assay: HeLa, 100 nM transfected, 24 h, mean of 3
Details: ASO

| Sequence | caspase activation (% of PBS control) |
| --- | --- |
| TGGCAAGCATCCT (sugars l2 d9 l2, PS) | 434 |
| GTTACTGCCTTCTTAC (sugars ldlllddddddddldl, PS) | 438 |
| GTTACTGCCTTCT (sugars l4 d8 l1, PS) | 142 |
| GTTACTGCCTTCTTAC (sugars l2 d1 l1 d8 l4, PS) | 194 |
| GTTACTGCCTTCTTAC (sugars ldddlddddddlddll, PS) | 133 |
| TACTGCCTTCTTA (sugars l4 d6 l3, PS) | 404 |
| TGGCAAGCATCCTGTA (sugars ldlllddddddldlll, PS) | 476 |
| GTTACTGCCTTCTTAC (sugars l2 d11 l1 d1 l1, PS) | 129 |
| GTTACTGCCTTCTTAC (sugars ldldlddddddlddll, PS) | 220 |
| GTTACTGCCTTCTTAC (sugars l3 d9 l2 d1 l1, PS) | 202 |
| GCAAGCATCCTGT (sugars l1 d9 l1 d1 l1, PS) | 124 |
| ACTGCCTTCTTAC (sugars l3 d8 l2, PS) | 339 |
| TGGCAAGCATCCTGTA (sugars l4 d10 l2, PS) | 396 |
| TGGCAAGCATCCTGTA (sugars l1 d2 l2 d10 l1, PS) | 367 |
| GTTACTGCCTTCTTAC (sugars lldlldddddddldll, PS) | 293 |
| GTTACTGCCTTCTTAC (sugars lldldddddddlldll, PS) | 163 |
| TGGCAAGCATCCTGTA (sugars ldllldddddddldll, PS) | 459 |
| TGGCAAGCATCCTGTA (sugars l1 d1 l2 d8 l4, PS) | 398 |
| CAAGCATCCTGTA (sugars l4 d8 l1, PS) | 194 |
| GCAAGCATCCTGT (sugars l2 d1 l1 d7 l2, PS) | 319 |
| TTACTGCCTTCTT (sugars l3 d7 l1 d1 l1, PS) | 205 |
| ACTGCCTTCTTAC (sugars l1 d2 l1 d6 l3, PS) | 126 |
| TGGCAAGCATCCTGTA (sugars ldlddddddddlddll, PS) | 218 |
| TGGCAAGCATCCTGTA (sugars l2 d11 l1 d1 l1, PS) | 369 |
| GTTACTGCCTTCTTAC (sugars l5 d8 l3, PS) | 512 |
| GTTACTGCCTTCTTAC (sugars l1 d1 l1 d9 l4, PS) | 147 |

| Sequence | caspase activation (% of PBS control) |
| --- | --- |
| GTTACTGCCTTCT (sugars l3 d9 l1, PS) | 138 |
| TTACTGCCTTCTT (sugars ldllddddddldl, PS) | 181 |
| GTTACTGCCTTCTTAC (sugars llddlddddddllddl, PS) | 231 |
| TGGCAAGCATCCTGTA (sugars l3 d10 l1 d1 l1, PS) | 251 |
| TGGCAAGCATCCTGTA (sugars l1 d2 l2 d8 l3, PS) | 419 |
| TGGCAAGCATCCTGTA (sugars l2 d9 l1 d3 l1, PS) | 413 |
| TGGCAAGCATCCTGTA (sugars l1 d2 l1 d8 l4, PS) | 398 |
| TACTGCCTTCTTA (sugars l4 d7 l2, PS) | 594 |
| TGGCAAGCATCCTGTA (sugars l4 d11 l1, PS) | 422 |
| GTTACTGCCTTCTTAC (sugars l1 d2 l1 d7 l5, PS) | 268 |
| CAAGCATCCTGTA (sugars l2 d8 l3, PS) | 250 |
| ACTGCCTTCTTAC (sugars l2 d10 l1, PS) | 171 |
| GTTACTGCCTTCT (sugars l3 d7 l3, PS) | 267 |
| GTTACTGCCTTCT (sugars l1 d1 l2 d7 l2, PS) | 154 |
| TGGCAAGCATCCTGTA (sugars ldlddddddddddldl, PS) | 147 |
| TGGCAAGCATCCTGTA (sugars l3 d9 l1 d1 l2, PS) | 416 |
| ACTGCCTTCTTAC (sugars l1 d10 l2, PS) | 120 |
| ACTGCCTTCTTAC (sugars l1 d1 l1 d7 l3, PS) | 257 |
| TGGCAAGCATCCTGTA (sugars l2 d9 l5, PS) | 368 |
| GTTACTGCCTTCTTAC (sugars llddlddddddldldl, PS) | 235 |
| TGGCAAGCATCCTGTA (sugars llddlddddddlldll, PS) | 446 |
| GTTACTGCCTTCTTAC (sugars ldldlddddddlllll, PS) | 342 |
| GTTACTGCCTTCTTAC (sugars lddllddddddllddl, PS) | 268 |
| TGGCAAGCATCCTGTA (sugars ldldldddddddlldl, PS) | 218 |
| GTTACTGCCTTCTTAC (sugars ldldlddddddddlll, PS) | 214 |
| TGGCAAGCATCCTGTA (sugars l1 d11 l1 d1 l2, PS) | 315 |

| Sequence | caspase activation (% of PBS control) |
| --- | --- |
| GTTACTGCCTTCT (sugars l1 d1 l1 d9 l1, PS) | 117 |
| GTTACTGCCTTCTTAC (sugars l4 d8 l2 d1 l1, PS) | 284 |
| GTTACTGCCTTCTTAC (sugars l1 d10 l5, PS) | 350 |
| GTTACTGCCTTCTTAC (sugars llldlddddddldlll, PS) | 273 |
| TGGCAAGCATCCTGTA (sugars l2 d11 l3, PS) | 365 |
| TGGCAAGCATCCTGTA (sugars l2 d1 l2 d9 l2, PS) | 419 |
| GTTACTGCCTTCTTAC (sugars ldlddddddddllldl, PS) | 271 |
| TGGCAAGCATCCTGTA (sugars l1 d12 l1 d1 l1, PS) | 150 |
| TGGCAAGCATCCTGTA (sugars ldldlddddddllddl, PS) | 219 |
| TGGCAAGCATCCTGTA (sugars l1 d10 l2 d2 l1, PS) | 346 |
| GTTACTGCCTTCTTAC (sugars lldldddddddldddl, PS) | 155 |
| GTTACTGCCTTCTTAC (sugars l3 d9 l1 d1 l2, PS) | 188 |
| TTACTGCCTTCTT (sugars l1 d1 l1 d9 l1, PS) | 117 |
| GTTACTGCCTTCTTAC (sugars ldllldddddddlddl, PS) | 461 |
| TTACTGCCTTCTT (sugars l1 d1 l2 d6 l3, PS) | 237 |
| TGGCAAGCATCCTGTA (sugars l1 d1 l1 d10 l3, PS) | 188 |
| GTTACTGCCTTCTTAC (sugars llddldddddddlldl, PS) | 330 |
| TGGCAAGCATCCTGTA (sugars l2 d2 l1 d9 l2, PS) | 391 |
| GTTACTGCCTTCTTAC (sugars l1 d1 l1 d10 l3, PS) | 109 |
| TGGCAAGCATCCTGTA (sugars l4 d7 l5, PS) | 414 |
| TACTGCCTTCTTA (sugars l1 d1 l1 d9 l1, PS) | 193 |
| TGGCAAGCATCCTGTA (sugars lddldddddddldlll, PS) | 303 |
| GTTACTGCCTTCTTAC (sugars llddlddddddldlll, PS) | 220 |
| TTACTGCCTTCTT (sugars l2 d1 l1 d6 l3, PS) | 325 |
| TTACTGCCTTCTT (sugars l1 d9 l3, PS) | 131 |
| ACTGCCTTCTTAC (sugars l2 d1 l1 d7 l2, PS) | 162 |

| Sequence | caspase activation (% of PBS control) |
| --- | --- |
| GTTACTGCCTTCT (sugars l1 d1 l1 d8 l2, PS) | 123 |
| GTTACTGCCTTCTTAC (sugars llldldddddddlddl, PS) | 277 |
| TGGCAAGCATCCTGTA (sugars lddlddddddddlddl, PS) | 312 |
| GGCAAGCATCCTG (sugars l1 d1 l2 d6 l3, PS) | 495 |
| GTTACTGCCTTCTTAC (sugars l1 d1 l2 d10 l2, PS) | 130 |
| GTTACTGCCTTCTTAC (sugars ldllddddddddlldl, PS) | 192 |
| GCAAGCATCCTGT (sugars l1 d2 l1 d8 l1, PS) | 187 |
| GTTACTGCCTTCT (sugars l1 d11 l1, PS) | 112 |
| GTTACTGCCTTCTTAC (sugars l3 d8 l2 d1 l2, PS) | 243 |
| TGGCAAGCATCCTGTA (sugars l2 d9 l1 d2 l2, PS) | 424 |
| TACTGCCTTCTTA (sugars l1 d9 l1 d1 l1, PS) | 142 |
| TGGCAAGCATCCT (sugars l2 d1 l1 d8 l1, PS) | 383 |
| GTTACTGCCTTCTTAC (sugars l1 d1 l1 d12 l1, PS) | 103 |
| TGGCAAGCATCCTGTA (sugars lddldddddddllddl, PS) | 314 |
| GTTACTGCCTTCTTAC (sugars l5 d7 l2 d1 l1, PS) | 515 |
| GTTACTGCCTTCTTAC (sugars lddddddddddldldl, PS) | 115 |
| GTTACTGCCTTCT (sugars l1 d1 l2 d8 l1, PS) | 136 |
| TGGCAAGCATCCTGTA (sugars l3 d8 l1 d2 l2, PS) | 297 |
| GTTACTGCCTTCTTAC (sugars l5 d8 l1 d1 l1, PS) | 457 |
| TACTGCCTTCTTA (sugars l1 d2 l1 d8 l1, PS) | 118 |
| GTTACTGCCTTCTTAC (sugars l4 d7 l3 d1 l1, PS) | 444 |
| GTTACTGCCTTCTTAC (sugars ldlddddddddlldll, PS) | 135 |
| GTTACTGCCTTCTTAC (sugars ldlddddddddldlll, PS) | 155 |
